1 compound from EP4670722A1, “PROPHYLACTIC OR AMELIORATING AGENT FOR CELL AGING” (Kyowa Pharma Chemical Co., Ltd., priority 2023, dated 2024) can be followed below.

Test [1] deals with Human normal dermal fibroblasts (NB1RGB) with a PDL of 30 or less. Nature of the test: Cell proliferation rate (MTT) of normal dermal fibroblasts. Format: cell-based. The note with it: 50 µg/mL to 200 µg/mL, 2 days, activity increased as content increased, Fig. 2. As to the method: Human normal dermal fibroblasts (NB1RGB) with a PDL of 30 or less and human senescent dermal fibroblasts (NB1RGB) with a PDL of 50 or more were each cultured using DMEM containing 10% FBS. The cultured cells were collected by trypsin treatment. The collected cells were seeded in a 96-well microplate at a concentration of 5.0 x 10^3 cells/well and cultured overnight. Thereafter, the cells were cultured for 2 days at 37°C in a medium for fibroblast proliferation (FBS-free) to which a test sample (sucrose or 2'-fucosyllactose) was added to a concentration of 50 µg/mL, 100 µg/mL,or 200 µg/mL. The medium was replaced with FBS-free DMEM medium, then 10 µL/well of 5 mg/mL 3-[4,5-dimethylthiazol-2-yl]-2,5-diphenyltetrazolium bromide (MTT) was added, and the cells were cultured at 37°C for 3 hours. […] After extraction, the absorbance of formazan (As, 492 nm) was measured with a microplate reader. […]
Human normal dermal fibroblasts with a PDL of 30 or less and human senescent fibroblasts with a PDL of 50 or more were each cultured and the absorbance of formazan was measured in the same manner as in Example 2-1, except that no test sample was added. The obtained absorbance was designated as Ab, and the cell proliferation rate represented by the above formula (1) was determined for each case of PDL of 30 or less and PDL of 50 or more.

In another test the test system is type I collagen. Nature of the test: Type I collagen expression analysis (ELISA). It counts as cell-based, Human. As to conditions: at a concentration of at least 100 µg/mL or more, 48 hours; effect increased from 100 µg/mL to 200 µg/mL; Fig. 9. The method, then: Human normal dermal fibroblasts (NB1RGB) with a PDL of 30 or less were cultured in DMEM (Dulbecco's Modified Eagle Medium, manufactured by Nissui Pharmaceutical Co., Ltd.) containing 10% FBS. The cultured cells were collected by trypsin treatment. The collected cells were seeded in a 96-well plate, and when they reached 100% confluence, FBS-free DMEM containing the test sample (2'-FL and sucrose) at 50 µg/mL, 100 µg/mL, or 200 µg/mL was added, and after culturing for 48 hours in a 37°C, 5% CO2 incubator, the culture supernatant was collected. The culture supernatant was centrifuged, and the resulting supernatant was used as a sample.
The culture supernatant was collected and used as a sample in the same manner as in [Example 8-1], except that FBS-free DMEM not containing the test sample was used instead of FBS-free DMEM containing the test sample.
An Enzyme-Linked Immunosorbent Assay (ELISA) method was performed using an antibody against type I collagen to measure the amount of type I collagen in the samples. […] After stopping the reaction, the absorbance at a measurement wavelength of 450 nm was measured using a microplate reader. […] The relative value of the type I collagen amount when each test sample was added was calculated, with the type I collagen amount in the control set to 1.
On the technique in general: In an ELISA, binding on a coated surface is turned into a signal by an enzyme label.

The test system of the next test is laminin. Nature of the test: Laminin secretion amount (ELISA) of tunicamycin-treated epidermal keratinocytes. Format: cell-based, Human. As to conditions: HaCaT, tunicamycin 0.1 µg/mL, 50 µg/mL to 200 µg/mL, 24 hours; recovery increased as content increased; Fig. 7. As to the method: Human normal epidermal keratinocytes (HaCaT) were cultured using DMEM containing 10% FBS. The cultured cells were collected by trypsin treatment. The collected cells were seeded in a 24-well plate, and when they reached 100% confluence, tunicamycin was added at 0.1 µg/mL, and after 24 hours, the culture supernatant was collected. A group was also prepared in which FBS-free DMEM medium containing a test sample (2'-fucosyllactose) at 50 µg/mL, 100 µg/mL, or 200 µg/mL was added simultaneously with tunicamycin, and after 24 hours, the culture supernatant was collected. The culture supernatant was centrifuged, and the resulting supernatant was used as a sample. […] This total cell protein concentration was measured by the Bradford assay.
Human normal epidermal keratinocytes were cultured and the culture supernatant was collected in the same manner as in Example 6-1, except that tunicamycin and the test sample were not added. […] This total cell protein concentration was measured by the Bradford assay.
An Enzyme-Linked Immunosorbent Assay (ELISA) method was performed using an antibody against laminin to measure the amount of laminin in the sample. […] After stopping the reaction, the absorbance at a measurement wavelength of 450 nm was measured with a microplate reader. […]

With `C[C@@H]1O[C@@H](O[C@H]2[C@H](O[C@H]3[C@H](O)[C@@H](O)C(O)O[C@@H]3CO)O[C@H](CO)[C@H](O)[C@@H]2O)[C@@H](O)[C@H](O)[C@@H]1O` (stereo partly drawn) [2'-FL, 2'-fucosyllactose], in test [1], the “proliferation activity of normal fibroblasts (cell proliferation rate)” value is given as “improved the proliferation activity of normal fibroblasts”. In addition, the “expression level of type I collagen” value in the test on type I collagen was “increased the expression level of type I collagen”. Also, the laminin secretion result in the test on laminin is recorded as “restored laminin secretion”.
